Source: patent US20090232942A1, “Yeast Preparations With Improved Antioxidant Properties and Uses Thereof” (priority 2005, published 2009)
Converted amounts (≈) assume the structure as drawn.

Tests used:
Format in all cases: biochemical
[1] = Reduction of the DPPH radical, inhibition of absorbance at 523 nm (UV-visible); settings: for IC50 Mean: n = 3
Description: DPPH. has an intense violet color and this compound remains stable, in the solid form, for years. An antioxidant, proton donor, is capable of reducing this radical (DPPH.→DPPH2), which leads to a decrease in its absorbance. The antioxidant capacity of the compounds is thus determined by evaluating the percentage of inhibition of the absorbance of DPPH. at 523 nm. […] The DPPH. sold by Aldrich and the vitamin C sold by Merck were used. In these tests, the selenium and glutathione concentrations were such that the solution of E2 contained as much selenium and glutathione as that of E1. The method used made it possible to evaluate the overall antioxidant power of the mixture and to compare it to that of reference substances under the same experimental conditions. The antioxidant activity was evaluated by measuring the capacity of the extract to trap the […].

LDL/VLDL [2] = assay: LAG-TIME method: Cu2+-induced oxidation of LDL/VLDL, absorbance at 234 nm, unbound samples; settings: 1 μM of sample; for Lag Time: 70 μg/ml LDL/VLDL, 25 μM Cu2+, 234 nm; for Increase of Lag Time 1 (%): relative to control (LDL alone)
Procedure: It makes it possible to measure the time required for the added antioxidants to oxidize. […] The effect of the antioxidant present is all the stronger when the lag time is long (in seconds). The kinetic analysis was carried out at 234 nm. The various samples were brought to the same concentration of 1 μm.
The mixture was subjected to Vortex stirring for 5 minutes, then to centrifugation for 10 minutes. […] of supernatant was recovered. This product was ready to use. (sample No. 7 was ground into a fine powder before being mixed with water).
The procedure described in the publication J. Agric. […] This experiment thus made it possible to measure the capacity of the antioxidant tested to inhibit oxidation.
The LDL/VLDL preparation and the various samples were diluted in PBS in order to obtain the desired concentration (70 μg/ml of LDL/VLDL). The control batch contained only the 70 μg/ml LDL/VLDL preparation and PBS. The absorbance of the PBS, the control batch and the other samples was carried out at a wavelength of 234 nm over 10 min on a Genesys 5 machine. Next, 25 μM of Cu^2+ (final concentration in the solution) were added and mixed and the absorbance measurement was carried out every 5 minutes for 6 to 8 hours.

LDL/VLDL [3] = assay: Bound LAG TIME: samples incubated 2 hours with LDL/VLDL before Cu2+-induced oxidation; settings: 1 μM of sample; for Lag Time: bound (2 hours incubation with LDL/VLDL at ambient temperature), 25 μM Cu2+; for Increase of Lag Time 1 (%) / Increase of Lag Time 2 (%): bound; for Increase of Lag Time 1 (%): relative to control (LDL alone); for Increase of Lag Time 2 (%): relative to the unbound sample
Procedure: The LDLs and the various antioxidants were inoculated so that bonds were created. This phenomenon is supposed to represent what happens in the plasma when an antioxidant having the ability to bind is absorbed.
The various samples and the LDL/VLDL preparation were diluted to 1 μM and 70 μg/ml respectively in PBS, then incubated at ambient temperature for 2 hours. Next, 25 μM of Cu^2+ (final concentration in the solution) were added and mixed and the absorbance measurement was carried out every 5 minutes for 6 to 8 hours. The absorbance of the samples was measured at a wavelength of 234 nm over 10 min on a Genesys 5 machine. The tocopherol was used as a positive control given that it is known for binding to the LDL which is generally a tocopherol carrier in plasma.

Compound: N[C@@H](CCC(=O)N[C@@H](CS)C(=O)NCC(=O)O)C(=O)O [Glutathione]
- IC50 times higher than that for vitamin C ([1]; 30 min value): 40 times
- IC50 Mean ([1]; Time 10 min): 292.97 µg/mL (≈ 953 µM)
- IC50 Mean ([1]; Time 20 min): 233.84 µg/mL (≈ 761 µM)
- IC50 Mean ([1]; Time 30 min): 202.13 µg/mL (≈ 658 µM)

Compound: tocopherol
- inhibition of LDL oxidation in comparison to the control (in words) (LDL/VLDL [2]): high levels of inhibition
- Lag Time (LDL/VLDL [2]): 7285 s
- Increase of Lag Time 1 (%) (LDL/VLDL [2]): 140%
- Lag Time (LDL/VLDL [3]): 20940 s
- Increase of Lag Time 1 (%) (LDL/VLDL [3]): 590%
- Increase of Lag Time 2 (%) (LDL/VLDL [3]): 187%

Compound: O=C1O[C@H]([C@@H](O)CO)C(O)=C1O [Vitamin C, vitamin C]
- IC50 Mean ([1]; Time 10 min): 5.24 µg/mL (≈ 29.8 µM)
- IC50 Mean ([1]; Time 20 min): 5.20 µg/mL (≈ 29.5 µM)
- IC50 Mean ([1]; Time 30 min): 5.16 µg/mL (≈ 29.3 µM)

Compound: C[Se]CC[C@H](N)C(=O)O [selenomethionine]
- inhibition of LDL oxidation in comparison to the control (in words) (LDL/VLDL [2]): did not show signs of inhibition
- Lag Time (LDL/VLDL [2]): 2805 s
- Increase of Lag Time 1 (%) (LDL/VLDL [2]): −8%
- Lag Time (LDL/VLDL [3]): 6267 s
- Increase of Lag Time 1 (%) (LDL/VLDL [3]): 106%
- Increase of Lag Time 2 (%) (LDL/VLDL [3]): 123%
